Test [1] has as its target T1, Gag-Pol polyprotein (Human immunodeficiency virus type 1 group M subtype B (isolate HXB2), UniProt P04585). The test can be described thus: ST Inhibitory Assay. The protocol:
Insertion of two newly processed 3'-viral DNA ends into the host-cell chromosome. All biological assays were performed essentially as previously described [Dayam et al., J. Med. Chem., 51:1136-1144].

Test [2] deals with T1, Gag-Pol polyprotein. Briefly: 3'-P Inhibitory Assay. The protocol:
Cleavage of a dinucleotide from each 3'-end of viral cDNA. All biological assays were performed essentially as previously described [Dayam et al., J. Med. Chem., 51:1136-1144].

pIC50: −log10 of the molar value.

One may read the pIC50 as the negative decadic logarithm of the IC50, by convention in mol/L. On to `CC(=O)Oc1ccc(/C=C/C(=O)Nc2ccc(S(=O)(=O)Nc3ccc(Cl)c(Cl)c3)cc2)cc1OC(C)=O` [(E)-3-(3,4-Diacetoxyphenyl)-N-(4-(3,4-Dichlorophenylsulfamoyl)phenyl)acrylamide (10h)], for which the negative logarithm of the IC50 (pIC50) against Gag-Pol polyprotein [1] was 5.15; against Gag-Pol polyprotein [2], 4.12.

For `CC(=O)Oc1ccc(/C=C/C(=O)Nc2ccc(S(=O)(=O)Nc3ccc(F)c(F)c3)cc2)cc1OC(C)=O` [(E)-3-(3,4-Diacetoxyphenyl)-N-(4-(3,4-Difluorophenylsulfamoyl)phenyl)acrylamide (10b)], the negative-log IC50 (pIC50) on Gag-Pol polyprotein [1] was 4.96; against Gag-Pol polyprotein [2], 4.22.

For the compound `CC(=O)Oc1ccc(/C=C/C(=O)Nc2ccc(S(=O)(=O)Nc3cc(C)cc(C)c3)cc2)cc1OC(C)=O` [(E)-3-(3,4-Diacetoxyphenyl)-N-(4-(3,5-Dimethylphenylsulfamoyl)phenyl)acrylamide (10k)], the negative logarithm of the IC50 (pIC50) against Gag-Pol polyprotein [1] is 4.80; on Gag-Pol polyprotein [2], 4.10.

In the case of `CC(=O)Oc1ccc(/C=C/C(=O)Nc2ccc(S(=O)(=O)Nc3cccc(Cl)c3F)cc2)cc1OC(C)=O` [(E)-3-(3,4-Diacetoxyphenyl)-N-(4-(3-chloro-2-fluorophenylsulfamoyl)phenyl)acrylamide (10l)], the pIC50 against Gag-Pol polyprotein [1] was 4.89; on Gag-Pol polyprotein [2], 4.30.

As to `O=C(/C=C/c1ccc(O)c(O)c1)Nc1ccc(S(=O)(=O)Nc2ccccc2Br)cc1` [(E)-3-(3,4-Dihydroxyphenyl)-N-(4-(2-Bromophenylsulfamoyl)phenyl)acrylamide (11g)], the negative logarithm of the IC50 (pIC50) was 5.05 against Gag-Pol polyprotein [1] and 4.96 against Gag-Pol polyprotein [2].

Take `O=C(/C=C/c1ccc(O)c(O)c1)Nc1ccc(S(=O)(=O)Nc2ccc(Cl)c(Cl)c2)cc1` [(E)-3-(3,4-Dihydroxyphenyl)-N-(4-(3,4-Dichlorophenylsulfamoyl)phenyl)acrylamide (11h)]: the results for the pIC50 against Gag-Pol polyprotein [1] and against Gag-Pol polyprotein [2] were 5.22 and 4.77, respectively.

Regarding `O=C(/C=C/c1ccc(O)c(O)c1)Nc1ccc(S(=O)(=O)Nc2ccc(F)c(F)c2)cc1` [(E)-3-(3,4-Dihydroxyphenyl)-N-(4-(3,4-Difluorophenylsulfamoyl)phenyl)acrylamide (11b)], the results for the negative logarithm of the IC50 (pIC50) against Gag-Pol polyprotein [1] and against Gag-Pol polyprotein [2] were 5.22 and 4.96, respectively.

On to `Cc1cc(C)cc(NS(=O)(=O)c2ccc(NC(=O)/C=C/c3ccc(O)c(O)c3)cc2)c1` [(E)-3-(3,4-Dihydroxyphenyl)-N-(4-(3,5-Dimethylphenylsulfamoyl)phenyl)acrylamide (11k)], for which the figures for the pIC50 against Gag-Pol polyprotein [1] and on Gag-Pol polyprotein [2] were 5.40 and 5.30, respectively.

`O=C(/C=C/c1ccc(O)c(O)c1)Nc1ccc(S(=O)(=O)Nc2cccc(Br)c2)cc1` [(E)-3-(3,4-Dihydroxyphenyl)-N-(4-(3-Bromophenylsulfamoyl)phenyl)acrylamide (11f)]: the negative-log IC50 (pIC50) on Gag-Pol polyprotein [1] is 4.66; on Gag-Pol polyprotein [2], 4.31.

Take `O=C(/C=C/c1ccc(O)c(O)c1)Nc1ccc(S(=O)(=O)Nc2ccc(F)c(Br)c2)cc1` [(E)-3-(3,4-Dihydroxyphenyl)-N-(4-(3-bromo-4-fluorophenylsulfamoyl)phenyl)acrylamide (11u)]: the negative logarithm of the IC50 (pIC50) against Gag-Pol polyprotein [1] is 5.40; against Gag-Pol polyprotein [2], 5.10.

On to `O=C(/C=C/c1ccc(O)c(O)c1)Nc1ccc(S(=O)(=O)Nc2cccc(Cl)c2F)cc1` [(E)-3-(3,4-Dihydroxyphenyl)-N-(4-(3-chloro-2-fluorophenylsulfamoyl)phenyl)acrylamide (11l)], for which the negative-log IC50 (pIC50) was 4.85 against Gag-Pol polyprotein [1] and 4.66 at Gag-Pol polyprotein [2].

In the case of `O=C(/C=C/c1ccc(O)c(O)c1)Nc1ccc(S(=O)(=O)Nc2ccc(F)c(Cl)c2)cc1` [(E)-3-(3,4-Dihydroxyphenyl)-N-(4-(3-chloro-4-fluorophenylsulfamoyl)phenyl)acrylamide (11v)], the results for the pIC50 on Gag-Pol polyprotein [1] and against Gag-Pol polyprotein [2] were 5.40 and 5.10, respectively.

In the case of `O=C(/C=C/c1ccc(O)c(O)c1)Nc1ccc(S(=O)(=O)Nc2ccc(Br)cc2)cc1` [(E)-3-(3,4-Dihydroxyphenyl)-N-(4-(4-Bromophenylsulfamoyl)phenyl)acrylamide (11e)], the negative-log IC50 (pIC50) on Gag-Pol polyprotein [1] is 5.10; against Gag-Pol polyprotein [2], 4.46.

As for `CCCCc1ccc(NS(=O)(=O)c2ccc(NC(=O)/C=C/c3ccc(O)c(O)c3)cc2)cc1` [(E)-3-(3,4-Dihydroxyphenyl)-N-(4-(4-Butylphenylsulfamoyl)phenyl)acrylamide (11i)], the results for the pIC50 at Gag-Pol polyprotein [1] and on Gag-Pol polyprotein [2] were 5.15 and 4.60, respectively.

`CCOc1ccc(NS(=O)(=O)c2ccc(NC(=O)/C=C/c3ccc(O)c(O)c3)cc2)cc1` [(E)-3-(3,4-Dihydroxyphenyl)-N-(4-(4-Ethoxylphenylsulfamoyl)phenyl)acrylamide (11j)]: the negative logarithm of the IC50 (pIC50) on Gag-Pol polyprotein [1] is 5.05; at Gag-Pol polyprotein [2], 4.46.

Take `O=C(/C=C/c1ccc(O)c(O)c1)Nc1ccc(S(=O)(=O)NCc2ccc(F)cc2)cc1` [(E)-3-(3,4-Dihydroxyphenyl)-N-(4-(4-Fluorobenzylsulfamoyl)phenyl)acrylamide (11d)]: the negative logarithm of the IC50 (pIC50) was 5.05 on Gag-Pol polyprotein [1] and 4.62 at Gag-Pol polyprotein [2].

With `O=C(/C=C/c1ccc(O)c(O)c1)Nc1ccc(S(=O)(=O)NCCc2ccc(F)cc2)cc1` [(E)-3-(3,4-Dihydroxyphenyl)-N-(4-(4-Fluorophenethylsulfamoyl)phenyl)acrylamide (11t)], the negative logarithm of the IC50 (pIC50) against Gag-Pol polyprotein [1] was 5.00; against Gag-Pol polyprotein [2], 4.85.

Take `O=C(/C=C/c1ccc(O)c(O)c1)Nc1ccc(S(=O)(=O)Nc2ccc(F)cc2)cc1` [(E)-3-(3,4-Dihydroxyphenyl)-N-(4-(4-Fluorophenylsulfamoyl)phenyl)acrylamide (11a)]: the values for the pIC50 against Gag-Pol polyprotein [1] and against Gag-Pol polyprotein [2] were 5.30 and 5.10, respectively.

Consider `O=C(/C=C/c1ccc(O)c(O)c1)Nc1ccc(S(=O)(=O)Nc2ccccc2)cc1` [(E)-3-(3,4-Dihydroxyphenyl)-N-(4-phenylsulfamoylphenyl)acrylamide (11m)], for which the negative logarithm of the IC50 (pIC50) is 4.92 against Gag-Pol polyprotein [1] and 4.80 against Gag-Pol polyprotein [2].

`CC(=O)Oc1cc(C(=O)Nc2ccc(S(=O)(=O)Nc3ccccc3Br)cc2)cc(OC(C)=O)c1OC(C)=O` [N-(4-(2-Bromophenylsulfamoyl)phenyl)-3,4,5-triacetoxybenzamide (8g)]: the values for the pIC50 against Gag-Pol polyprotein [1] and on Gag-Pol polyprotein [2] were 5.52 and 4.92, respectively.

On to `O=C(Nc1ccc(S(=O)(=O)Nc2ccccc2Br)cc1)c1cc(O)c(O)c(O)c1` [N-(4-(2-Bromophenylsulfamoyl)phenyl)galloylamide (9g)], for which the pIC50 is 5.85 against Gag-Pol polyprotein [1] and 5.30 at Gag-Pol polyprotein [2].

`CC(=O)Oc1cc(C(=O)Nc2ccc(S(=O)(=O)Nc3ccccc3C)cc2)cc(OC(C)=O)c1OC(C)=O` [N-(4-(2-Methylphenylsulfamoyl)phenyl)-3,4,5-triacetoxybenzamide (8s)]: the values for the negative logarithm of the IC50 (pIC50) against Gag-Pol polyprotein [1] and at Gag-Pol polyprotein [2] were 5.80 and below 5.00, respectively.

Take `Cc1ccccc1NS(=O)(=O)c1ccc(NC(=O)c2cc(O)c(O)c(O)c2)cc1` [N-(4-(2-Methylphenylsulfamoyl)phenyl)galloylamide (9s)]: the pIC50 against Gag-Pol polyprotein [1] is 5.70; against Gag-Pol polyprotein [2], 5.15.

With `O=C(Nc1ccc(S(=O)(=O)Nc2ccc(Cl)c(Cl)c2)cc1)c1cc(O)c(O)c(O)c1` [N-(4-(3,4-Dichlorophenylsulfamoyl)phenyl)galloylamide (9h)], the pIC50 at Gag-Pol polyprotein [1] is 5.77; at Gag-Pol polyprotein [2], 5.30.

As for `Cc1ccc(NS(=O)(=O)c2ccc(NC(=O)c3cc(O)c(O)c(O)c3)cc2)cc1C` [N-(4-(3,4-Dimethylphenylsulfamoyl)phenyl)galloylamide (9p)], the negative logarithm of the IC50 (pIC50) against Gag-Pol polyprotein [1] and against Gag-Pol polyprotein [2] was 5.10 each time.

For the compound `Cc1cc(C)cc(NS(=O)(=O)c2ccc(NC(=O)c3cc(O)c(O)c(O)c3)cc2)c1` [N-(4-(3,5-Dimethylphenylsulfamoyl)phenyl)galloylamide (9k)], the negative logarithm of the IC50 (pIC50) on Gag-Pol polyprotein [1] is 5.60; against Gag-Pol polyprotein [2] it was 5.10.

Turning to `O=C(Nc1ccc(S(=O)(=O)Nc2cccc(Br)c2)cc1)c1ccc(O)c(O)c1` [N-(4-(3-Bromophenylsulfamoyl)phenyl)3,4-dihydroxybenzamide (11x)], the pIC50 against Gag-Pol polyprotein [1] was 4.82; against Gag-Pol polyprotein [2], 4.35.

Take `O=C(Nc1ccc(S(=O)(=O)Nc2cccc(Br)c2)cc1)c1cc(O)c(O)c(O)c1` [N-(4-(3-Bromophenylsulfamoyl)phenyl)galloylamide (9f)]: the negative logarithm of the IC50 (pIC50) at Gag-Pol polyprotein [1] is 6.15; against Gag-Pol polyprotein [2], 5.70.

Consider `CC(=O)Oc1cc(C(=O)Nc2ccc(S(=O)(=O)Nc3cccc(Cl)c3F)cc2)cc(OC(C)=O)c1OC(C)=O` [N-(4-(3-chloro-2-fluorophenylsulfamoyl)phenyl)-3,4,5-triacetoxybenzamide (8l)], for which the pIC50 against Gag-Pol polyprotein [1] is 5.70; against Gag-Pol polyprotein [2], 5.30.

With `O=C(Nc1ccc(S(=O)(=O)Nc2cccc(Cl)c2F)cc1)c1cc(O)c(O)c(O)c1` [N-(4-(3-chloro-2-fluorophenylsulfamoyl)phenyl)galloylamide (9l)], the pIC50 was 6.10 against Gag-Pol polyprotein [1] and 5.89 at Gag-Pol polyprotein [2].

`O=C(Nc1ccc(S(=O)(=O)Nc2ccc(Br)cc2)cc1)c1cc(O)c(O)c(O)c1` [N-(4-(4-Bromophenylsulfamoyl)phenyl)galloylamide (9e)]: the pIC50 was 6.15 against Gag-Pol polyprotein [1] and 5.52 at Gag-Pol polyprotein [2].

As for `CCCCc1ccc(NS(=O)(=O)c2ccc(NC(=O)c3cc(O)c(O)c(O)c3)cc2)cc1` [N-(4-(4-Butylphenylsulfamoyl)phenyl)galloylamide (9i)], the results for the negative logarithm of the IC50 (pIC50) against Gag-Pol polyprotein [1] and at Gag-Pol polyprotein [2] were 5.60 and 5.52, respectively.

On to `O=C(Nc1ccc(S(=O)(=O)NCc2ccc(Cl)cc2)cc1)c1cc(O)c(O)c(O)c1` [N-(4-(4-Chlorobenzylsulfamoyl)phenyl)galloylamide (9o)], for which the figures for the negative-log IC50 (pIC50) on Gag-Pol polyprotein [1] and against Gag-Pol polyprotein [2] were 5.70 and 5.30, respectively.

As for `O=C(Nc1ccc(S(=O)(=O)Nc2ccc(Cl)cc2)cc1)c1cc(O)c(O)c(O)c1` [N-(4-(4-Chlorophenylsulfamoyl)phenyl)galloylamide (9n)], the figures for the pIC50 against Gag-Pol polyprotein [1] and at Gag-Pol polyprotein [2] were 5.70 and 5.22, respectively.

Turning to `CCOc1ccc(NS(=O)(=O)c2ccc(NC(=O)c3cc(O)c(O)c(O)c3)cc2)cc1` [N-(4-(4-Ethoxylphenylsulfamoyl)phenyl)galloylamide (9j)], the pIC50 against Gag-Pol polyprotein [1] was 5.89; on Gag-Pol polyprotein [2] it was 5.22.

The record behind these values is BindingDB's records for doi:10.3109/14756366.2011.604851 (Shandong University, 2012).
